Columns and labels:
[1] = Conversion of Val-Pro-PI 1 to PI 1 by human serum diluted in PBS; type: in vitro ADME; settings: 2% human serum (HS) in PBS
Experimental: (§1) A: CD26; B: bovine serum; C: human serum (both 10% in PBS).
(§2) FIG. 3a: Bovine serum (2% in PBS), FIG. 3b: Human serum (2% in PBS).
(§3) Ten percent BS or HS converted 40 to 70% of Val-Pro-PI 1 to PI 1 in one hour (FIG. 10). Two percent BS and HS converted Val-Pro-PI 1 to PI 1 by 8% and 25%, respectively. After 4 hrs, 35% and 95% of compound was hydrolyzed by BS and HS, respectively (FIG. 11).
(§4) Compounds were separated on a Reverse Phase RP-8 (Merck) using a gradient with buffer A (50 mM NaH2PO4+5 mM heptane sulfonic acid pH 3.2) and buffer B (acetonitrile).
(§5) 0→2 min: 2% buffer B; 2→8 min: 20% buffer B; 8→10 min: 25% buffer B; 10→12 min: 35% buffer B; 12→30 min: 50% buffer B; 30→35 min: 50% buffer B; 35→40 min: 2% buffer B; 40→45 min: 2% buffer B. Rt values of Val-Pro-PI 1 and PI 1 were 18.7 and 17.7 min, respectively.

CD26 in bovine serum = target: T1, CD26 in bovine serum (Bos taurus, UniProt P81425); assay: Inhibition of GP-pNA conversion to pNA by 2% bovine serum in PBS; type: biochemical; settings: 2% BS in PBS, compared with purified CD26
T1 construct: Conversion of GP-pNA to pNA by two percent BS in PBS; from tissue; host or cells: bovine serum, 2% in PBS
T1 sequence (P81425 38-765): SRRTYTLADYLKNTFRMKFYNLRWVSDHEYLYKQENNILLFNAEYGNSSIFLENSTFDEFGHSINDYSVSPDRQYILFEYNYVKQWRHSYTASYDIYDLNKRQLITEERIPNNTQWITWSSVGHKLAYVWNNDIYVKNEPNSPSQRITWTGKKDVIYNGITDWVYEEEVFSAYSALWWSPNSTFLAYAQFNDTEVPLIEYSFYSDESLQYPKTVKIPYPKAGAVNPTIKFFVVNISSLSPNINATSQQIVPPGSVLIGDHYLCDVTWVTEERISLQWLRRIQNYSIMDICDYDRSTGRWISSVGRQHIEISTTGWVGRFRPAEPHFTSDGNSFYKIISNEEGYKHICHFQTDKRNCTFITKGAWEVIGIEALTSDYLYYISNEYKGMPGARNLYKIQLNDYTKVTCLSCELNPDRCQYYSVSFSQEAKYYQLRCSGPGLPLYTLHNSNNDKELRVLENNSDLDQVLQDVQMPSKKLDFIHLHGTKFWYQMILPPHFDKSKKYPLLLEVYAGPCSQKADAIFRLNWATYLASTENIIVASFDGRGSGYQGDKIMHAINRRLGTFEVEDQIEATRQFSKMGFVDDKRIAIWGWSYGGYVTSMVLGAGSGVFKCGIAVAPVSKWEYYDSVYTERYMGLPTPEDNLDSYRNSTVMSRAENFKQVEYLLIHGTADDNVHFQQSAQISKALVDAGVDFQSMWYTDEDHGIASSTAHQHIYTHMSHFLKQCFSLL
Experimental: (§6) The CD26 catalytic reaction was measured by recording the increase of absorption caused by pNA release at 400 nm.

purified CD26 = purified CD26 (Homo sapiens, UniProt P27487); assay: Conversion of Val-Pro-PI 1 to PI 1 by purified CD26; type: biochemical
purified CD26, sequence (P27487 whole entry, species assumed): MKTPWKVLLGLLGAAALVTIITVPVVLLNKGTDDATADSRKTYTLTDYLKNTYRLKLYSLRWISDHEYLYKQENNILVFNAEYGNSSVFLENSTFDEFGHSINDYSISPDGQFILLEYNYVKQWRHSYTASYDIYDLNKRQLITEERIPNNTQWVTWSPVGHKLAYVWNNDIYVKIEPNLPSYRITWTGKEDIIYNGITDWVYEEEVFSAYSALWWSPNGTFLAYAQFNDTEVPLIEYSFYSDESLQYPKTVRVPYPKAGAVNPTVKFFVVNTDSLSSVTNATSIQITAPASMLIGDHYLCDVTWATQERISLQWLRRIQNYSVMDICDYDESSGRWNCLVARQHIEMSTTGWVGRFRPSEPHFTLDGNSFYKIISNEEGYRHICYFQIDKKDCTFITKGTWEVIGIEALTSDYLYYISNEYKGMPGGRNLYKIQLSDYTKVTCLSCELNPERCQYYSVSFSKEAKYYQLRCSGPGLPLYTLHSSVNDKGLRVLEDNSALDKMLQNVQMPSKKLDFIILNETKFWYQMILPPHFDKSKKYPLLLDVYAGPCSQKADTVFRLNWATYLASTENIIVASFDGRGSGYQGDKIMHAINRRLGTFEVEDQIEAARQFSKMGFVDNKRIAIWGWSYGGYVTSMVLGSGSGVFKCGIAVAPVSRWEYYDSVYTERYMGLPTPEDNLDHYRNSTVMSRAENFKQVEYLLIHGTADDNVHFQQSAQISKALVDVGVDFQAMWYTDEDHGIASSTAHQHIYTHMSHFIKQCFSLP
Experimental: as §1, §3, §4, §5

[2] = Conversion of Val-Pro-PI 1 to PI 1 by bovine serum diluted in PBS; type: in vitro ADME; settings: 2% bovine serum (BS) in PBS
Experimental: as §1, §2, §3, §4, §5

CD26 = CD26 (Homo sapiens, UniProt P27487); assay: Competitive inhibition of CD26-catalysed conversion of GP-pNA to GP+pNA (purified CD26); type: biochemical
CD26, sequence (P27487 whole entry, species assumed): as above
Experimental: as §6

CD26 in human serum = target: T2, CD26 in human serum (Homo sapiens, UniProt P27487); assay: Inhibition of GP-pNA conversion to pNA by 2% human serum in PBS; type: biochemical; settings: HS 2% in PBS
T2 construct: from tissue; host or cells: human serum, 2% in PBS
T2 sequence (P27487 39-766 limits assumed): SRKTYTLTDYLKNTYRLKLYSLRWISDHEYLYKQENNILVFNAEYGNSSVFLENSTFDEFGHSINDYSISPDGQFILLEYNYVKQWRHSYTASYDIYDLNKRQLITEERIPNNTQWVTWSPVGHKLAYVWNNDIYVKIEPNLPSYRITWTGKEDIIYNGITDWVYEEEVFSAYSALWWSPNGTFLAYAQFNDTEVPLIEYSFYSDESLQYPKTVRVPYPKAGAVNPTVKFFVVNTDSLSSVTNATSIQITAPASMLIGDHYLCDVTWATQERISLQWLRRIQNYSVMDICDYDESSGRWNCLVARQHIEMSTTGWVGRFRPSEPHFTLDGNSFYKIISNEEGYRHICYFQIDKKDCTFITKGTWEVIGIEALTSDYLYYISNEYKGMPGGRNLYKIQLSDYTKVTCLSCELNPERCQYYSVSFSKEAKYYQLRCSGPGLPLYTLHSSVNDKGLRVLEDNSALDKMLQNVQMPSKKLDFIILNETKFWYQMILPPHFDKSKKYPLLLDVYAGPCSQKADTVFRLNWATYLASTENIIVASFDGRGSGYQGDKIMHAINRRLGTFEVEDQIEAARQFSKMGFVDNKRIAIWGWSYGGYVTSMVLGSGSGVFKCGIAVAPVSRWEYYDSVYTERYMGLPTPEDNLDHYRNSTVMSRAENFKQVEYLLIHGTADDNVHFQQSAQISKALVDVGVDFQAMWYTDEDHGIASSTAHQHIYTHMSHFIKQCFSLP
Experimental: as §6

[3] = time not printed (preceding sentence: one hour)

Q: What does the source list for CC(C)CN(C[C@@H](O)[C@H](Cc1ccccc1)NC(=O)O[C@H]1CO[C@H]2OCC[C@H]21)S(=O)(=O)c1ccc(CNC(=O)[C@@H]2CCCN2C(=O)[C@@H](N)C(C)C)cc1 [Val-Pro-PI 1]?
A: compound hydrolyzed ([1]; after 4 hrs): 95%; conversion of Val-Pro-PI 1 to PI 1 [1, 3]: 25%; inhibition of conversion of GP-pNA to pNA (CD26 in bovine serum): even more efficiently inhibited; time to complete conversion of Val-Pro-PI 1 to PI 1 (purified CD26): ≤ 60 min; compound hydrolyzed ([2]; after 4 hrs): 35%; conversion of Val-Pro-PI 1 to PI 1 [2, 3]: 8%; inhibition of release of pNA from GP-pNA (CD26; 20 μM Val-Pro-PI 1, 50 μM GP-pNA): could inhibit; competition with substrate GP-pNA for CD26 (CD26; 100 μM Val-Pro-PI 1, 50 μM GP-pNA): efficiently competed; inhibition of GP-pNA conversion to pNA (CD26 in human serum): competitively inhibited

— patent US20080214648A1, “Hiv Prodrugs Cleavable by Cd26” (priority 2003, published 2008)
